Experimental data published in patent US20090023773A1, “COMPOSITIONS AND METHODS FOR MODULATING GATED ION CHANNELS” (PainCeptor Pharma Corporation, priority 2007, published 2009).

Target: T1, recombinant homomeric hASIC1a channels (Homo sapiens, UniProt P78348)
T1 construct: expressed in transfected cells; host or cells: Xenopus laevis oocytes (nuclear microinjection of expression vector such as pcDNA3)
T1 sequence (P78348 1-528): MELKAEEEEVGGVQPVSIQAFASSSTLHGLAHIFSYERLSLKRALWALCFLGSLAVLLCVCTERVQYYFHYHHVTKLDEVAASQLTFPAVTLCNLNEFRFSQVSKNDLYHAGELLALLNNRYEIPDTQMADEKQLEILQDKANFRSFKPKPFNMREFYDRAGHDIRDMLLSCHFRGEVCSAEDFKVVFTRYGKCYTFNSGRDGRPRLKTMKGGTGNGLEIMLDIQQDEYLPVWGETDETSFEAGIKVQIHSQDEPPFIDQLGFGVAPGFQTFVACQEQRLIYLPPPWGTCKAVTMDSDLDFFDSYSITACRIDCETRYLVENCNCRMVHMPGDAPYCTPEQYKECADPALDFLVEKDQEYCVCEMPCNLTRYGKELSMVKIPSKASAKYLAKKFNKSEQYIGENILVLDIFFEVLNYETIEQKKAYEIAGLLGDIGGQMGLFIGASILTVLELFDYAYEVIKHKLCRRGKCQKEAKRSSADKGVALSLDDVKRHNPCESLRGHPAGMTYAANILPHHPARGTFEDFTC
Assay: Two-electrode voltage clamp in Xenopus laevis oocytes expressing gated ion channels (Example 4)
Assay type: cell-based
Conditions: generated using oocytes as in Example 4

Row | IC50 (Table 1) [µM] | IC50 (Table 2) [µM] | SMILES
1 | 0.1 to 10 | – | Cc1cc(OC2CCN(Cc3ccccc3F)CC2)c2cccc(F)c2n1 [Compound 2]
2 | 0.1 to 10 | – | COc1cccc2c(OC3CCN(Cc4ccccc4)CC3)cc(C)nc12 [Compound 11]
3 | 20.1 to 30 | – | O=C(O)c1cc(OC2CCN(Cc3ccccc3)CC2)c2ccccc2n1 [Compound 12]
4 | 0.1 to 10 | – | COc1cccc(CN2CCC(Oc3cc(C)nc4ccccc34)CC2)c1 [Compound 14]
5 | 0.1 to 10 | – | Cc1cc(OC2CCN(C(C)c3ccccc3C(=O)O)CC2)c2cccc(F)c2n1 (stereo not drawn) [Compound 15]
6 | 0.1 to 10 | – | Cc1cc(OC2CCN(Cc3ccccc3C#N)CC2)c2cccc(F)c2n1 [Compound 17]
7 | > 30 | – | Cc1cc(OC2CCN(Cc3ccccc3)CC2)c2cccc(O)c2n1 [Compound 21]
8 | 0.1 to 10 | – | Cc1cc(OC2CCN(Cc3cccc(O)c3)CC2)c2ccccc2n1 [Compound 22]
9 | > 30 | – | Cc1cc(OC2CCN(Cc3c(F)cccc3C(=O)O)CC2)c2cccc(F)c2n1 [Compound 23]
10 | > 30 | – | Cc1cc(OC2CCN(Cc3ccccc3C(=O)O)CC2)c2cc(O)ccc2n1 [Compound 24]
11 | > 30 | – | Cc1cc(OC2CCN(Cc3cccnc3C(=O)O)CC2)c2cccc(F)c2n1 [Compound 25]
12 | 0.1 to 10 | – | Cc1cc(OC2CCN(Cc3ccc(O)cc3)CC2)c2cccc(F)c2n1 [Compound 26, 4-((4-(8-fluoro-2-methylquinolin-4-yloxy)piperidin-1-yl)methyl)phenol]
13 | – | 0.1 to 10 | Cc1cc(OC2CCN(Cc3cccc(F)c3)CC2)c2ccccc2n1 [Compound 27]
14 | – | 0.1 to 10 | Cc1cc(OC2CCN(Cc3ccccc3)CC2)c2cc(F)ccc2n1 [Compound 29]
15 | – | 10.1 to 20 | Cc1cc(OC2CCN(Cc3ccccc3C#N)CC2)c2cc(F)ccc2n1 [Compound 30]
16 | – | 10.1 to 20 | Cc1cc(OC2CCN(Cc3ccccc3C(=O)O)CC2)c2cc(F)ccc2n1 [Compound 31]
17 | – | 0.1 to 10 | COc1cc(F)cc2c(OC3CCN(Cc4ccccc4C(=O)O)CC3)cc(C)nc12 [Compound 36, 2-[4-(6-Fluoro-8-methoxy-2-methyl-quinolin-4-yloxy)-piperidin-1-ylmethyl]-benzoic acid]
18 | – | > 30 | Cc1cc(OC2CCN(Cc3c(F)cccc3C(=O)O)CC2)c2cc(Br)ccc2n1 [Compound 43]
19 | – | > 30 | Cc1cc(OC2CCN(Cc3c(F)cccc3C#N)CC2)c2cc(Br)ccc2n1 [Compound 44]
20 | – | > 30 | Cc1cc(OC2CCN(Cc3c(F)cccc3C#N)CC2)c2cc(C#N)ccc2n1 [Compound 45]

Row | IC50 (Table 1) [µM] | IC50 (Table 2) [µM] | SMILES
21 | – | 20.1 to 30 | Cc1cc(OC2CCN(Cc3ccccc3)CC2)c2cc(C#N)ccc2n1 [Compound 46]
22 | – | > 30 | COc1ccc(CN2CCC(Oc3cc(C)nc4ccc(Br)cc34)CC2)cc1 [Compound 48]
23 | – | 0.1 to 10 | Cc1cc(OC2CCN(Cc3ccc(O)cc3F)CC2)c2cccc(F)c2n1 [Compound 49]
24 | – | 0.1 to 10 | Cc1cc(OC2CCN(Cc3ccccc3-c3nnn[nH]3)CC2)c2cccc(F)c2n1 [Compound 50, 4-[1-(2-(1H-tetrazol-5-yl-)benzyl)piperidin-4-yloxy]-8-fluoro2-methylquinoline]
25 | – | > 30 | Cc1cc(OC2CCN(Cc3ccccc3C#N)CC2)c2cc(OC3CCCCO3)ccc2n1 (stereo not drawn) [Compound 52]
26 | – | 0.1 to 10 | Cc1cc(OC2CCN(Cc3ccccc3C(=O)Nc3ccc(C(=O)O)cc3)CC2)c2cccc(F)c2n1 [Compound 54]
27 | – | > 30 | Cc1cc(OC2CCN(Cc3ccccc3)CC2)c2cc(-c3cccc(F)c3)ccc2n1 [Compound 55]
28 | – | 0.1 to 10 | Cc1cc(OC2CCN(Cc3ccccc3-c3nnn[nH]3)CC2)c2cc(O)ccc2n1 [Compound 56]
29 | – | > 30 | Cc1cc(OC2CCN(Cc3ccccc3C#N)CC2)c2cc(Br)ccc2n1 [Compound 57]
30 | – | > 30 | Cc1cc(OC2CCN(Cc3ccccc3)CC2)c2cc(-c3nnn[nH]3)ccc2n1 [Compound 58]
31 | – | > 30 | Cc1cc(OC2CCN(Cc3ccccc3-c3nnn[nH]3)CC2)c2cc(Br)ccc2n1 [Compound 59]
32 | – | > 30 | Cc1cc(OC2CCN(Cc3ccccc3C#N)CC2)c2cc(C#N)ccc2n1 [Compound 60]
33 | – | > 30 | Cc1cc(OC2CCN(Cc3ccccc3C#N)CC2)c2ccccc2n1 [Compound 63]
34 | – | 20.1 to 30 | COC(=O)c1ccc(CN2CCC(Oc3cc(C)nc4ccccc34)CC2)cc1 [Compound 64]
35 | – | > 30 | Cc1cc(OC2CCN(Cc3ccc(F)c(C#N)c3)CC2)c2ccccc2n1 [Compound 65]
36 | – | > 30 | Cc1cc(OC2CCN(Cc3ccc(C(=O)O)cc3)CC2)c2ccccc2n1 [Compound 66]
37 | – | > 30 | Cc1cc(OC2CCN(Cc3ccccc3)CC2)c2ccc(F)cc2n1 [Compound 80]
38 | – | > 30 | Cc1cc(OC2CCN(Cc3cccc(OCc4ccccc4)c3)CC2)c2ccccc2n1 [Compound 85]
39 | – | 10.1 to 20 | Cc1cc(OC2CCN(Cc3ccc4c(c3)OCO4)CC2)c2ccccc2n1 [Compound 86]

The next lines start with the compound.

Row | SMILES | IC50 (Table 1) [µM] | IC50 (Table 2) [µM]
40 | Cc1cc(OC2CCN(Cc3cccnc3)CC2)c2cccc(F)c2n1 [Compound 3] | 0.1 to 10 | –
41 | Cc1cc(OC2CC(C)(C)N(Cc3ccccc3)C(C)(C)C2)c2ccccc2n1 [Compound 4] | > 30 | –
42 | Cc1cc(OC2CCN(Cc3ccccc3F)C(C)C2)c2ccccc2n1 (stereo not drawn) [Compound 5] | 0.1 to 10 | –
43 | Cc1nc(OC2CCN(Cc3ccccc3)CC2)c2ccccc2n1 [Compound 7] | 10.1 to 20 | –
44 | Cc1nc(OC2CCN(Cc3ccccc3F)CC2)c2ccccc2n1 [Compound 8] | > 30 | –
45 | Cc1nc(OC2CCN(Cc3ccccc3C#N)CC2)c2ccccc2n1 [Compound 9] | > 30 | –
46 | C=CCOC(=O)N1CCC(Oc2nc(C)nc3ccccc23)CC1 [Compound 10] | 0.1 to 10 | –
47 | Cc1cc(OC2CCN(C(C)c3ccccc3C#N)CC2)c2cccc(F)c2n1 (stereo not drawn) [Compound 18] | 20.1 to 30 | –
48 | Cc1cc(OC2CCCN(Cc3ccccc3)C2)c2ccccc2n1 (stereo not drawn) [Compound 19] | > 30 | –
49 | Cc1cc(O[C@H]2CCCN(Cc3ccccc3)C2)c2ccccc2n1 [Compound 20] | > 30 | –
50 | COc1cc(F)cc2c(OC3CCN(Cc4ccccc4)CC3)cc(C)nc12 [Compound 32] | – | 0.1 to 10
51 | COc1ccc(F)c2c(OC3CCN(Cc4ccccc4)CC3)cc(C)nc12 [Compound 33] | – | > 30
52 | COc1cc(F)cc2c(OC3CCN(Cc4ccccc4C#N)CC3)cc(C)nc12 [Compound 34] | – | > 30
53 | COc1ccc(F)c2c(OC3CCN(Cc4ccccc4C#N)CC3)cc(C)nc12 [Compound 35] | – | > 30
54 | COc1cc(F)cc2c(OC3CCN(Cc4ccccc4-c4nnn[nH]4)CC3)cc(C)nc12 [Compound 37, 6-Fluoro-8-methoxy-2-methyl-4-{1-[2-(1H-tetrazol-5-yl)-benzyl]-piperidin-4-yloxy}-quinoline] | – | 0.1 to 10
55 | Cc1cc(OC2CCN(C(C)c3ccccc3)CC2)c2ccccc2n1 (stereo not drawn) [Compound 38] | – | 0.1 to 10
56 | Cc1cc(OC2CCN(C(C)C)CC2)c2cccc(F)c2n1 [Compound 39] | – | > 30
57 | Cc1cc(NC2CCN(Cc3ccccc3)CC2)c2ccccc2n1 [Compound 40] | – | > 30
58 | COc1ccc(CN2CCC(Oc3cc(C)nc4c(F)cccc34)CC2)cc1 [Compound 41] | – | 0.1 to 10
59 | Cc1cc(OC2CCN(Cc3c(F)cccc3C#N)CC2)c2cccc(F)c2n1 [Compound 42] | – | 0.1 to 10

Row | SMILES | IC50 (Table 1) [µM] | IC50 (Table 2) [µM]
60 | COc1ccc(CN2CCC(Oc3cc(C)nc4c(F)cccc34)CC2)c(F)c1 [Compound 47] | – | 0.1 to 10
61 | COC(=O)c1ccc(NC(=O)c2ccccc2CN2CCC(Oc3cc(C)nc4c(F)cccc34)CC2)cc1 [Compound 51] | – | 10.1 to 20
62 | Cc1cc(OC2CCN(Cc3ccccc3C(=O)NCCCC(=O)OCc3ccccc3)CC2)c2cccc(F)c2n1 [Compound 61] | – | 0.1 to 10
63 | Cc1cc(OC2CC(C)N(Cc3ccccc3F)C(C)C2)c2ccccc2n1 (stereo not drawn) [Compound 67] | – | > 30
64 | c1ccc(CN2CCC(Oc3ccnc4ccccc34)CC2)cc1 [Compound 68] | – | 0.1 to 10
65 | COc1ccc(CC2CCC(Oc3cc(C)nc4c(F)cccc34)CC2)cc1 (stereo not drawn) [Compound 69] | – | > 30
66 | COc1cccc(CN2CCC(Oc3cc(C)nc4c(F)cccc34)CC2)c1 [Compound 70] | – | 0.1 to 10
67 | COc1ncccc1CN1CCC(Oc2cc(C)nc3c(F)cccc23)CC1 [Compound 71] | – | 0.1 to 10
68 | COc1ccc(CN2CCC(Oc3cc(C)nc4c(F)cccc34)CC2)cn1 [Compound 72] | – | > 30
69 | Cc1cc(OC2CCN(Cc3ccncc3F)CC2)c2cccc(F)c2n1 [Compound 73] | – | 20.1 to 30
70 | Cc1cc(OC2CCN(Cc3ccccc3)C3CCCCC23)c2cccc(F)c2n1 (stereo not drawn) [Compound 74] | – | 0.1 to 10
71 | Cc1cc(OC2CCCN(Cc3ccccc3)CC2)c2cccc(F)c2n1 (stereo not drawn) [Compound 75] | – | > 30
72 | Cc1cc(OC2CCN(Cc3cccnc3CO)CC2)c2cccc(F)c2n1 [Compound 76] | – | > 30
73 | Cc1cc(OC2CCN(Cc3c(F)cccc3F)CC2)c2cccc(F)c2n1 [Compound 77] | – | 10.1 to 20
74 | Cc1cc(OC2CCN(Cc3ccc(Br)cc3F)CC2)c2cccc(F)c2n1 [Compound 78] | – | 20.1 to 30
75 | COc1cc(OC)c(CN2CCC(Oc3cc(C)nc4c(F)cccc34)CC2)c(C(=O)O)c1 [Compound 81] | – | > 30
76 | Cc1cc(OC2CCN(Cc3ccccc3C(=O)O)C3CCCCC23)c2cccc(F)c2n1 (stereo not drawn) [Compound 82] | – | > 30
77 | c1ccc(CN2CCC(Oc3nccc4ccccc34)CC2)cc1 [Compound 83] | – | > 30
78 | Cc1cc(OC2CCN(Cc3ccc4ccccc4c3)CC2)c2cccc(F)c2n1 [Compound 84] | – | > 30
